{"source": "patent US12662490B2", "about": "“Heterocyclic compounds” (Hoffmann-La Roche Inc., priority 2019, dated 2026)", "data": [{"biological_target": "T1, MAGL (Homo sapiens, UniProt Q99685)", "T1 sequence (Q99685 1-303)": "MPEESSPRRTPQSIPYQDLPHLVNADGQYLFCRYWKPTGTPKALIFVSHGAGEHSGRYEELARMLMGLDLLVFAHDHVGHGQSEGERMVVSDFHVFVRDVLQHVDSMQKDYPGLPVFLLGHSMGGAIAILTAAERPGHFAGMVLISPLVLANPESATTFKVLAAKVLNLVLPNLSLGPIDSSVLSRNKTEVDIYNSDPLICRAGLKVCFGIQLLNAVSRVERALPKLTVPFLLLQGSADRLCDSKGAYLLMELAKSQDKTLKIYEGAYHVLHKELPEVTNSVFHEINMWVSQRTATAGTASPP", "assay": "2-AG assay (MAGL inhibitory activity; hydrolysis of 2-arachidonoylglycerol to arachidonic acid followed by mass spectrometry)", "format": "biochemical", "conditions": "15 min preincubation at RT, 8 μM 2-arachidonoylglycerol, 30 min at RT, RapidFire MS readout", "procedure": "Compounds were profiled for MAGL inhibitory activity by determining the enzymatic activity by following the hydrolysis of the natural substrate 2-arachidonoylglycerol (2-AG) resulting in arachidonic acid, which can be followed by mass spectrometry. This assay is hereinafter abbreviated “2-AG assay”.\nThe 2-AG assay was carried out in 384 well assay plates (PP, Greiner Cat #784201) in a total volume of 20 μL. Compound dilutions were made in […] (VWR Chemicals 23500.297) in a polypropylene plate in 3-fold dilution steps to give a final concentration range in the assay from 12.5 μM to […]. 0.25 μL compound dilutions (100% DMSO) were added to 9 μL MAGL in assay buffer (50 mM TRIS (GIBCO, 15567-027), 1 mM EDTA (Fluka, 03690-100 mL), 0.010 (v/v) Tween. After shaking, the plate was incubated for 15 min at RT. To start the reaction, 10 μL 2-arachidonoylglycerol in assay buffer was added. The final concentrations in the assay was […] and 8 μM 2-arachidonoylglyerol. After shaking and 30 min incubation at RT, the reaction was quenched by the addition of 40 μL of ACN containing 4 μM of d8-arachidonic acid. The amount of arachidonic acid was traced by an online SPE system (Agilent Rapidfire) coupled to a triple quadrupole mass spectrometer (Agilent 6460). A C18 SPE cartridge (G9205A) was used in an ACN/water liquid setup. The mass spectrometer was operated in negative electrospray mode following the mass transitions 303.1→259.1 for arachidonic acid and 311.1→267.0 for d8-arachidonic acid. The activity of the compounds was calculated based on the ratio of intensities [arachidonic acid/d8-arachidonic acid].", "units": {"IC50": "nM"}, "values": [{"smiles": "COc1cccc(C(=O)N2CCN3C[C@H](c4ccc(F)c(-c5ccccc5)c4)OC[C@@H]3C2)c1Cl", "note": "[Example 12, [(3S,9aS)-3-(4-fluoro-3-phenyl-phenyl)-3,4,6,7,9,9a-hexahydro-1H-pyrazino[2,1-c][1,4]oxazin-8-yl]-(2-chloro-3-methoxy-phenyl)methanone]", "IC50": 575}, {"smiles": "CC#Cc1cc([C@@H]2CN3CCN(C(=O)c4cccc(OC)c4Cl)C[C@H]3CO2)ccc1F", "note": "[Example 13, [(3R,9aS)-3-(4-fluoro-3-prop-1-ynyl-phenyl)-3,4,6,7,9,9a-hexahydro-1H-pyrazino[2,1-c][1,4]oxazin-8-yl]-(2-chloro-3-methoxy-phenyl)methanone]", "IC50": 238}, {"smiles": "COc1cccc(C(=O)N2CCN3C[C@@H](c4ccc(F)c(C#N)c4)OC[C@@H]3C2)c1Cl", "note": "[Example 14, [(3R,9aS)-3-(3-cyano-4-fluoro-phenyl)-3,4,6,7,9,9a-hexahydro-1H-pyrazino[2,1-c][1,4]oxazin-8-yl]-(2-chloro-3-methoxy-phenyl)methanone]", "IC50": 154}, {"smiles": "O=C(c1cnc2ccccc2c1Cl)N1CCN2C[C@@H](c3ccc(F)c(Cl)c3)OC[C@@H]2C1", "note": "[Example 16, [(3R,9aS)-3-(3-chloro-4-fluoro-phenyl)-3,4,6,7,9,9a-hexahydro-1H-pyrazino[2,1-c][1,4]oxazin-8-yl]-(4-chloro-3-quinolyl)methanone]", "IC50": 132}, {"smiles": "COc1cc(OC)c(Cl)c(C(=O)N2CCN3C[C@H](c4ccc(F)c(Cl)c4)OC[C@@H]3C2)c1", "note": "[Example 17, [(3S,9aS)-3-(3-chloro-4-fluoro-phenyl)-3,4,6,7,9,9a-hexahydro-1H-pyrazino[2,1-c][1,4]oxazin-8-yl]-(2-chloro-3,5-dimethoxy-phenyl)methanone]", "IC50": 4570}, {"smiles": "COc1cc(OC)c(Cl)c(C(=O)N2CCN3C[C@@H](c4ccc(F)c(Cl)c4)OC[C@@H]3C2)c1", "note": "[Example 18, [(3R,9aS)-3-(3-chloro-4-fluoro-phenyl)-3,4,6,7,9,9a-hexahydro-1H-pyrazino[2,1-c][1,4]oxazin-8-yl]-(2-chloro-3,5-dimethoxy-phenyl)methanone]", "IC50": 51.2}, {"smiles": "COc1ccc(C(=O)N2CCN3C[C@@H](c4ccc(F)c(Cl)c4)OC[C@@H]3C2)c(Cl)c1OC", "note": "[Example 19, [(3R,9aS)-3-(3-chloro-4-fluoro-phenyl)-3,4,6,7,9,9a-hexahydro-1H-pyrazino[2,1-c][1,4]oxazin-8-yl]-(2-chloro-3,4-dimethoxy-phenyl)methanone]", "IC50": 305}, {"smiles": "Cc1cccc(C(=O)N2CCN3C[C@@H](c4ccc(F)c(Cl)c4)OC[C@@H]3C2)c1C#N", "note": "[Example 20, 2-[(3R,9aS)-3-(3-chloro-4-fluoro-phenyl)-3,4,6,7,9,9a-xahydro-1H-pyrazino[2,1-c][1,4]oxazine-8-carbonyl]-6-methyl-benzonitrile]", "IC50": 121}, {"smiles": "O=C(c1cccc(OC(F)(F)F)c1F)N1CCN2C[C@@H](c3ccc(F)c(Cl)c3)OC[C@@H]2C1", "note": "[Example 21, [(3R,9aS)-3-(3-chloro-4-fluoro-phenyl)-3,4,6,7,9,9a-hexahydro-1H-pyrazino[2,1-c][1,4]oxazin-8-yl]-[2-fluoro-3-(trifluoromethoxy)phenyl]methanone]", "IC50": 746}, {"smiles": "O=C(c1cccc(-c2ccccc2)c1Cl)N1CCN2C[C@@H](c3ccc(F)c(Cl)c3)OC[C@@H]2C1", "note": "[Example 22, [(3R,9aS)-3-(3-chloro-4-fluoro-phenyl)-3,4,6,7,9,9a-hexahydro-1H-pyrazino[2,1-c][1,4]oxazin-8-yl]-(2-chloro-3-phenyl-phenyl)methanone]", "IC50": 16.1}, {"smiles": "COc1ccccc1-c1cccc(C(=O)N2CCN3C[C@@H](c4ccc(F)c(Cl)c4)OC[C@@H]3C2)c1Cl", "note": "[Example 23, [(3R,9aS)-3-(3-chloro-4-fluoro-phenyl)-3,4,6,7,9,9a-hexahydro-1H-pyrazino[2,1-c][1,4]oxazin-8-yl]-[2-chloro-3-(2-methoxyphenyl)phenyl]methanone]", "IC50": 26.3}, {"smiles": "COc1cccc(C(=O)N2CCN3C[C@@H](c4ccc(F)c(C5CC5)c4)OC[C@@H]3C2)c1Cl", "note": "[Example 24, [(3R,9aS)-3-(3-cyclopropyl-4-fluoro-phenyl)-3,4,6,7,9,9a-hexahydro-1H-pyrazino[2,1-c][1,4]oxazin-8-yl]-(2-chloro-3-methoxy-phenyl)methanone]", "IC50": 94.8}, {"smiles": "O=C(c1cccc(OC(F)F)c1Cl)N1CCN2C[C@@H](c3ccc(F)c(Cl)c3)OC[C@@H]2C1", "note": "[Example 25, [(3R,9aS)-3-(3-chloro-4-fluoro-phenyl)-3,4,6,7,9,9a-hexahydro-1H-pyrazino[2,1-c][1,4]oxazin-8-yl]-[2-chloro-3-(difluoromethoxy)phenyl]methanone]", "IC50": 131}, {"smiles": "Cc1[nH]ncc1-c1cccc(C(=O)N2CCN3C[C@@H](c4ccc(F)c(Cl)c4)OC[C@@H]3C2)c1Cl", "note": "[Example 26, [(3R,9aS)-3-(3-chloro-4-fluoro-phenyl)-3,4,6,7,9,9a-hexahydro-1H-pyrazino[2,1-c][1,4]oxazin-8-yl]-[2-chloro-3-(5-methyl-1H-pyrazol-4-yl)phenyl]methanone]", "IC50": 10.6}, {"smiles": "Cc1ccncc1-c1cccc(C(=O)N2CCN3C[C@@H](c4ccc(F)c(Cl)c4)OC[C@@H]3C2)c1Cl", "note": "[Example 27, [(3R,9aS)-3-(3-chloro-4-fluoro-phenyl)-3,4,6,7,9,9a-hexahydro-1H-pyrazino[2,1-c][1,4]oxazin-8-yl]-[2-chloro-3-(4-methyl-3-pyridyl)phenyl]methanone]", "IC50": 210}, {"smiles": "Cc1cnccc1-c1cccc(C(=O)N2CCN3C[C@@H](c4ccc(F)c(Cl)c4)OC[C@@H]3C2)c1Cl", "note": "[Example 28, [(3R,9aS)-3-(3-chloro-4-fluoro-phenyl)-3,4,6,7,9,9a-hexahydro-1H-pyrazino[2,1-c][1,4]oxazin-8-yl]-[2-chloro-3-(3-methyl-4-pyridyl)phenyl]methanone]", "IC50": 32.6}, {"smiles": "O=C(c1cccc(-c2ccnnc2)c1Cl)N1CCN2C[C@@H](c3ccc(F)c(Cl)c3)OC[C@@H]2C1", "note": "[Example 29, [(3R,9aS)-3-(3-chloro-4-fluoro-phenyl)-3,4,6,7,9,9a-hexahydro-1H-pyrazino[2,1-c][1,4]oxazin-8-yl]-(2-chloro-3-pyridazin-4-yl-phenyl)methanone]", "IC50": 202}, {"smiles": "O=C(c1cccc(-c2ccccn2)c1Cl)N1CCN2C[C@@H](c3ccc(F)c(Cl)c3)OC[C@@H]2C1", "note": "[Example 30, [(3R,9aS)-3-(3-chloro-4-fluoro-phenyl)-3,4,6,7,9,9a-hexahydro-1H-pyrazino[2,1-c][1,4]oxazin-8-yl]-[2-chloro-3-(2-pyridyl)phenyl]methanone]", "IC50": 49.2}, {"smiles": "O=C(c1cccc(-c2cccnn2)c1Cl)N1CCN2C[C@@H](c3ccc(F)c(Cl)c3)OC[C@@H]2C1", "note": "[Example 31, [(3R,9aS)-3-(3-chloro-4-fluoro-phenyl)-3,4,6,7,9,9a-hexahydro-1H-pyrazino[2,1-c][1,4]oxazin-8-yl]-(2-chloro-3-pyridazin-3-yl-phenyl)methanone]", "IC50": 173}, {"smiles": "Cc1ccnnc1-c1cccc(C(=O)N2CCN3C[C@@H](c4ccc(F)c(Cl)c4)OC[C@@H]3C2)c1Cl", "note": "[Example 34, [(3R,9aS)-3-(3-chloro-4-fluoro-phenyl)-3,4,6,7,9,9a-hexahydro-1H-pyrazino[2,1-c][1,4]oxazin-8-yl]-[2-chloro-3-(4-methylpyridazin-3-yl)phenyl]methanone]", "IC50": 1440}]}]}
